Patent publication US20160310389A1, “Low Viscosity Hair Care Composition” (The Procter & Gamble Company, priority 2015, published 2016)

Legend:
Type in all cases: physicochemical
[1] = NMR self-diffusion coefficients and specific diffusivity ratio; details: for Specific diffusivity ratio measured at 4%: diffusion coefficient of the viscosity reducing agent/diffusion coefficient of the surfactant, 4% additive; for Diffusion Coefficient (m^2/s) surfactant at 4% additive: surfactant self-diffusion
Experimental: Now referring to Table 5, the specified viscosity reducing agents were added to the formula at a level of 4% in absence of other viscosity reducing agents. Diffusion coefficients were determined using a vendor-supplied pulse sequence (“ledbpgq2s”, stimulated echo with bipolar gradients and convection compensation) using a Bruker Avance 700 MHz NMR spectrometer equipped with a Diff-30 high gradient diffusion probe. Gradient pulse durations ranged between 1700-2700 us, with diffusion periods ranging from 50-100 ms. 32 linearly-spaced gradient values were used ranging from 2%-95% of 40 A current, with resulting gradient strengths given by 30 Gauss/cm/A. Data were processed using software written in-house. It is often necessary to fit more than one diffusion coefficient to individual signals. Average diffusion coefficients are reported in these cases. Averages were calculated by averaging the reciprocals of the diffusion coefficients and then taking the reciprocal of that average.
The specific diffusivity ratio is calculated as the ratio of the diffusion coefficient of the viscosity reducing agent/diffusion coefficient of the surfactant.
Two mechanisms of viscosity reduction are hypothesized based on self-diffusion coefficients. This leads to a simple diagnostic measurement to classify perfumes by their mechanism of viscosity reduction. That diagnostic is the ratio of the perfume self-diffusion coefficient to the surfactant self-diffusion coefficient (specific diffusivity ratio). In mechanism 1, the surfactant diffusion coefficient is not reduced, and may be increased, while the perfume diffusion coefficient is faster still. In mechanism 2, the surfactant and perfume diffusion coefficient are reduced to relatively small, nearly equal values. For mechanism 1, the viscosity reducing agent diffuses faster than the surfactant (specific diffusivity ratio>1), whereas for mechanism 2, the viscosity reducing agent diffuses slower than the surfactant (specific diffusivity ratio<1).

[2] = Kinematic viscosity of surfactant base formulation with added agent (calibrated Cannon viscometers); details: for Kinematic viscosity at 40 C., 2% oil: 2% agent in base formulation; for Kinematic viscosity at 40 C., 4% oil: 4% agent in base formulation; for Kinematic viscosity at 40 C., 6% oil: 6% agent in base formulation; for Kinematic viscosity at 40 C., 8% oil: 8% agent in base formulation; for Lowest viscosity achieved: kinematic viscosity at 40° C., lowest over 2%, 4%, 6%, 8% agent in base formulation (24% sodium undecyl sulfate, 6% lauramidopropyl betaine, 1.6% perfume)
Text: Referring to Tables 1 and 2, the base formulations were made by mixing 1.6% perfume, 24% sodium undecyl sulfate (CAS#1072-24-8) active, 6% lauramidopropyl betaine (CAS#4292-10-8) active and 60.4% deionized water which leaves 8% unfilled for the addition of a viscosity reducing agent (the balance being filled in by distilled water). For all compositions, the surfactant, water and additives including viscosity reducing agents were expected to be in a single phase.
The agents from Tables 1 and 2 were added to the base formulation at a percentage of 2%, 4%, 6%, and 8% into the above surfactant solution. The subsequent formulations were vortexed and put into oven at 60° C. overnight to form homogeneous solution. The viscosities of the formulations were measured with calibrated viscometers (Size 200/350/450) from Cannon Instrument Company (2139 High Tech Road, State College, Pa., USA, 16803).
After the equilibration, the formulations were drawn to reach the starting mark with a rubber suction bulb and the flow time between the starting mark and end mark was recorded for calculation. Each formulation was measured three times to calculate average and standard deviation. Between samples, viscometer was cleaned with water and acetone to rinse off residual.
Viscosity values were calculated based on the equation:
Viscosity (mm^2/s (cSt))=Time (s)*Constant (mm^2/s^2·(cSt/s))
The time in the above equation is the flow time recorded in the experiment and the constant numbers for each calibrated viscometer were obtained from the manuals.

[3] = SAXS correlation length of the micelles; details: for Change in correlation length compared to control: control 51 A
Text: Now referring to Table 4, SAXS (Small angle x-ray scattering) was used to characterize the structure of the surfactant aggregates. For these set of samples, the broad peak represents the correlation length (CL) of the micelles and was used to differentiate between the different formulations.
SAXS data was collected with a Bruker NanoSTAR (Bruker AXS Inc., Madison, Wis., U.S.A.) using the micro-focus, Cu x-ray tube, operating at 45 kV, 0.650 mA. The sample to detector distance was 112.050 cm and the detector was Vantec2K 2-dimensional area detector. Samples were placed in 2 mm quartz capillaries, sealed with expoxy resin to prevent evaporation. The sealant is permitted to cure for 2 hours at RT (room temperature) prior to loading into the SAXS sample chamber for data acquisition under vacuum with a data collection time of 1200 s. The data acquisition angular range is 0.3° to 3.0° […], to observe the presence and location of any intensity bands in the x-ray scattering pattern.
Each raw 2-D SAXS data is integrated azimuthally and plotted versus the scattering vector (q), which is expressed as a […] in units of angstroms (1/Å). • The values for q are calculated by the SAXS instrument according to the following equation: […]
Where: 2θ is the scattering angle; and λ is the wavelength used. For each formulation analyzed, the location of each intensity peak on the plot of (Intensity) I vs q is identified and recorded.

Compound	Specific diffusivity ratio measured at 4% [1]	Diffusion Coefficient (m^2/s) surfactant at 4% additive [1]	Kinematic viscosity at 40 C., 2% oil [2]	Kinematic viscosity at 40 C., 4% oil [2]	Kinematic viscosity at 40 C., 6% oil [2]	Kinematic viscosity at 40 C., 8% oil [2]	Lowest viscosity achieved [2]	Correlation length peak [A] ([3]; 2% oil)	Change in correlation length compared to control ([3]; 2% oil)	Correlation length peak [A] ([3]; 4% oil)	Change in correlation length compared to control ([3]; 4% oil)
CCCCCCCCCCCCCC(=O)OC(C)C [Iso Propyl Myristate]	0.6401	2.1874E−12 m^2/s	234.2 cSt	53.7 cSt	30.4 cSt	45.0 cSt	30 cSt				
CC(C)CC=C(C=O)C(C)C [2-Isopropyl-5-methyl-2-hexenal]			332.3 cSt				332 cSt				
CC(=O)OCCC(C)CCCC(C)C (centres unmarked) [3,7-Dimethyloctyl Acetate]			445.7 cSt				446 cSt				
CCC(=O)OC1CC2CC1C1CC=CC21 (centres unmarked) [Cyclaprop]			404.2 cSt				404 cSt				
CC12CCC(CC1=O)C2(C)C (centres unmarked) [Camphor Gum]			365.8 cSt	127.2 cSt			127 cSt				
CC(C)COC(=O)c1ccccc1O [Iso Butyl Salicylate]			408.7 cSt				409 cSt				
CCCCCC(=O)OCC(C)C [Isobutyl Hexanoate]			390.0 cSt	177.9 cSt	140.9 cSt	109.4 cSt	109 cSt				
CCCCCC1(C)CCC(C)(C)C1=O (centres unmarked) [Veloutone]	0.965	2.3854E−12 m^2/s	260.2 cSt	129.1 cSt	56.3 cSt	47.3 cSt	47 cSt	55 A	7.8%	59 A	15.7%
OCC(O)CO [Glycerin]								51 A	0.0%	51 A	0.0%
COc1ccc(C=O)cc1 [Anisic aldehyde]	3.3012	1.8945E−11 m^2/s						51 A	0.0%	51 A	0.0%
C=CC(C)(CCC=C(C)C)OC(=O)C(C)C (centres unmarked) [Linalyl Iso Butyrate]	0.7224	2.5217E−12 m^2/s	223.4 cSt	73.0 cSt	37.7 cSt	39.9 cSt	38 cSt	56 A	9.8%	61 A	19.6%
C=C(C)[C@H]1CC=C(C)CC1 [Dipentene]			307.6 cSt	74.5 cSt	35.1 cSt	42.6 cSt	35 cSt				
CCC(=O)O[C@@H]1C[C@H]2CC[C@]1(C)C2(C)C (racemic) [Iso Bornyl Propionate]			463.1 cSt				463 cSt				
CC1=CCC(C(C)C)=CC1 [gamma-Terpinene]			238.0 cSt	65.0 cSt	31.7 cSt		32 cSt				
COC(C)(C)C1CC=C(C)CC1 (centres unmarked) [Orange Flower Ether]			552.2 cSt	418.8 cSt			419 cSt				
CCCCOC(=O)c1ccccc1O [Butyl Salicylate]			367.9 cSt				368 cSt				
CC(=O)OCCC(C)CCC=C(C)C (centres unmarked) [Citronellyl Acetate]			362.7 cSt				363 cSt				
CCCCCCCC(OC)OC [1,1-Dimethoxyoctane]			500.7 cSt	308.1 cSt			308 cSt				
CCCCCCC1C(=O)CCC1C(=O)OC (centres unmarked) [Dihyro Iso Jasmonate]			334.9 cSt	119.1 cSt			119 cSt				
CCC(CC(C)CC)=NO (centres unmarked) [5-Methyl-3-Heptanone Oxime]			246.3 cSt				246 cSt				
CC1=CC=C(C(C)C)CC1 [alpha-Terpinene]			324.4 cSt	96.0 cSt	41.5 cSt	46.7 cSt	42 cSt				
CCO [Ethanol]			205.6 cSt	111.0 cSt	50.8 cSt	29.2 cSt	29 cSt	51 A	0.0%	49 A	−3.9%
CC(C)CCOC(=O)c1ccccc1O [Isoamyl Salicylate]			460.3 cSt	193.2 cSt			193 cSt				
